Experiments:
[1] = Cytotoxicity against BALB/c mouse Peritoneal macrophage assessed as inhibition of cell growth incubated for 48 hrs by MTT assay; assay type: toxicity, cell-based; settings: peritoneal macrophages
Leishmania amazonensis [2] = assay: Antileishmanial activity against leishmania amazonensis IFLA/BR/1967/PH8 promastigotes infected in mouse Peritoneal macrophage incubated for 24 hrs; assay type: functional, organism-based; settings: IFLA/BR/1967/PH8, Peritoneal macrophage
[3] = Selectivity ratio of CC50 for cytotoxicity against BALB/c mouse Peritoneal macrophage assessed as inhibition of cell growth to IC50 for antileishmanial activity against leishmania amazonensis IFLA/BR/1967/PH8 promastigotes infected in mouse Peritoneal macrophage; assay type: toxicity, cell-based; settings: peritoneal macrophages, read-out: Ratio CC50/IC50
Leishmania amazonensis [4] = assay: Antileishmanial activity against leishmania amazonensis IFLA/BR/1967/PH8 intracellular amastigote infected in mouse Peritoneal macrophage incubated for 24 hrs; assay type: functional, organism-based; settings: IFLA/BR/1967/PH8, Peritoneal macrophage
[5] = Selectivity ratio of CC50 for cytotoxicity against BALB/c mouse Peritoneal macrophage assessed as inhibition of cell growth to IC50 for antileishmanial activity against leishmania amazonensis IFLA/BR/1967/PH8 intracellular amastigote infected in mouse Peritoneal macrophage; assay type: toxicity, cell-based; settings: peritoneal macrophages, read-out: Ratio CC50/IC50
Leishmania amazonensis [6] = assay: Antileishmanial activity against Leishmania amazonensis promastigotes; assay type: functional, organism-based
Leishmania amazonensis [7] = assay: Antileishmanial activity against leishmania amazonensis IFLA/BR/1967/PH8 intracellular amastigotes infected in mouse Peritoneal macrophage assessed as reduction in parasite growth measured for 24 hrs; assay type: functional, organism-based; settings: IFLA/BR/1967/PH8, Peritoneal macrophage
Leishmania amazonensis [8] = assay: Antileishmanial activity against leishmania amazonensis IFLA/BR/1967/PH8 amastigote measured for 72 hrs; assay type: functional, organism-based; settings: IFLA/BR/1967/PH8, 72 h
Leishmania amazonensis [9] = assay: Antileishmanial activity against leishmania amazonensis IFLA/BR/1967/PH8 promastigotes assessed as reduction in parasite growth measured for 72 hrs; assay type: functional, organism-based; settings: IFLA/BR/1967/PH8, 72 h
Leishmania amazonensis [10] = assay: Antiparasitic activity against Leishmania amazonensis promastigotes incubated for 24 hrs; assay type: functional, organism-based
Leishmania amazonensis [11] = assay: Antileishmanial activity against leishmania amazonensis assessed as reduction in parasite growth; assay type: functional, organism-based
Leishmania amazonensis [12] = assay: Antileishmanial activity against leishmania amazonensis infected in BALB/c mouse assessed as reduction parasite load in footpad; assay type: functional; set-up: scale not given: the % may be the effect or the level left
[13] = Mutagenicity in Salmonella typhimurium TA98 assessed as number of revertant colonies per plate at 10 microg/ml by Ames test; assay type: toxicity; settings: salmonella enterica subsp. enterica serovar typhimurium; dose 10 µg/ml
Leishmania amazonensis [14] = assay: Antileishmanial activity against Leishmania amazonensis promastigotes assessed as early apoptotic parasites at 10.4 uM incubated for 24 hrs by Annexin V/7-AAD staining based flow cytometry analysis relative to control; assay type: functional
Leishmania amazonensis [15] = assay: Antileishmanial activity against Leishmania amazonensis promastigotes assessed as late apoptotic parasites at 10.4 uM incubated for 24 hrs by Annexin V/7-AAD staining based flow cytometry analysis relative to control; assay type: functional
Leishmania amazonensis [16] = assay: Antileishmanial activity against Leishmania amazonensis promastigotes assessed as viable apoptotic parasites at 10.4 uM incubated for 24 hrs by Annexin V/7-AAD staining based flow cytometry analysis relative to control; assay type: functional
Leishmania amazonensis [17] = assay: Antileishmanial activity against Leishmania amazonensis promastigotes assessed as necrotic parasites at 10.4 uM incubated for 24 hrs by Annexin V/7-AAD staining based flow cytometry analysis relative to control; assay type: functional
Leishmania amazonensis [18] = assay: Antileishmanial activity against Leishmania amazonensis promastigotes assessed as early apoptotic parasites at 10.4 uM incubated for 48 hrs by Annexin V/7-AAD staining based flow cytometry analysis relative to control; assay type: functional
Leishmania amazonensis [19] = assay: Antileishmanial activity against Leishmania amazonensis promastigotes assessed as late apoptotic parasites at 10.4 uM incubated for 48 hrs by Annexin V/7-AAD staining based flow cytometry analysis relative to control; assay type: functional
Leishmania amazonensis [20] = assay: Antileishmanial activity against Leishmania amazonensis promastigotes assessed as viable apoptotic parasites at 10.4 uM incubated for 48 hrs by Annexin V/7-AAD staining based flow cytometry analysis relative to control; assay type: functional
Leishmania amazonensis [21] = assay: Antileishmanial activity against Leishmania amazonensis promastigotes assessed as necrotic parasites at 10.4 uM incubated for 48 hrs by Annexin V/7-AAD staining based flow cytometry analysis relative to control; assay type: functional
Leishmania amazonensis [22] = assay: Antileishmanial activity against Leishmania amazonensis promastigotes assessed as early apoptotic parasites at 10.4 uM incubated for 72 hrs by Annexin V/7-AAD staining based flow cytometry analysis relative to control; assay type: functional
Leishmania amazonensis [23] = assay: Antileishmanial activity against Leishmania amazonensis promastigotes assessed as late apoptotic parasites at 10.4 uM incubated for 72 hrs by Annexin V/7-AAD staining based flow cytometry analysis relative to control; assay type: functional
Leishmania amazonensis [24] = assay: Antileishmanial activity against Leishmania amazonensis promastigotes assessed as viable apoptotic parasites at 10.4 uM incubated for 72 hrs by Annexin V/7-AAD staining based flow cytometry analysis relative to control; assay type: functional
Leishmania amazonensis [25] = assay: Antileishmanial activity against Leishmania amazonensis promastigotes assessed as necrotic parasites at 10.4 uM incubated for 72 hrs by Annexin V/7-AAD staining based flow cytometry analysis relative to control; assay type: functional
[26] = Mutagenicity in Salmonella typhimurium TA98 assessed as number of revertant colonies per plate at 2.5 microg/ml in presence of S9 fraction by Ames test; assay type: toxicity, subcellular; settings: salmonella enterica subsp. enterica serovar typhimurium, dose 2.5 µg/ml
[27] = Mutagenicity in Salmonella typhimurium TA100 assessed as number of revertant colonies per plate at 2.5 microg/ml in presence of S9 fraction by Ames test; assay type: toxicity, subcellular; settings: salmonella enterica subsp. enterica serovar typhimurium, dose 2.5 µg/ml
Leishmania amazonensis [28] = assay: Potency index, ratio of pentamidine IC50 to test compound IC50 for antileishmanial activity against leishmania amazonensis IFLA/BR/1967/PH8 intracellular amastigote infected in mouse Peritoneal macrophage incubated for 24 hrs; assay type: functional

SMILES	IC50 (Leishmania amazonensis [2])	IC50 (Leishmania amazonensis [4])	CC50 at 48 h [1]	selectivity ratio [3]	selectivity ratio [5]	other results
COc1ccc(-n2cc(-c3cc(OC)c(OC)c(OC)c3)nn2)cc1OC	–	–	–	–	–	IC50 (Leishmania amazonensis [6]): 122 µM; IC50 (Leishmania amazonensis [7]): 122 µM
COc1cc(-c2cc(-c3ccc4c(c3)OCO4)no2)cc(OC)c1OC	–	–	–	–	–	IC50 (Leishmania amazonensis [8]): 3.3 µM
N=C(N)c1ccc(OCCCCCOc2ccc(C(=N)N)cc2)cc1 [PENTAMIDINE]	1.3 µM	16.3 µM	23.2 µM	17.8	1.4	–
COc1cc(-n2cc(-c3ccc4c(c3)OCO4)nn2)cc(OC)c1OC	12 µM	23.4 µM	23.5 µM	1.9	1	IC50 (Leishmania amazonensis [9]): 7.2 µM
COc1ccc(-c2cn(-c3cc(OC)c(OC)c(OC)c3)nn2)cc1OC	–	–	–	–	–	IC50 (Leishmania amazonensis [6]): 194 µM
COc1cc(-c2cc(-c3cc(OC)c(OC)c(OC)c3)on2)cc(OC)c1OC	–	–	–	–	–	IC50 (Leishmania amazonensis [10]): 17.6 µM
COc1ccc(-c2cc(-c3cc(OC)c(OC)c(OC)c3)on2)cc1OC	–	1.6 µM	–	–	21	IC50 (Leishmania amazonensis [11]): 20.2 µM; Activity (Leishmania amazonensis [12]): 98.5%
Nc1ccc([N+](=O)[O-])cc1N	–	–	–	–	–	Activity [13]: 253 µg
COc1ccc(-c2cc(-c3cc(OC)c(OC)c(OC)c3)no2)cc1OC	–	–	–	–	–	IC50 (Leishmania amazonensis [6]): 19.4 µM
C[C@@H]1[C@H](O)[C@@H](C)/C=C/C=C/C=C/C=C/C=C/C=C/C=C/[C@H](O[C@@H]2O[C@H](C)[C@@H](O)[C@H](N)[C@@H]2O)C[C@@H]2O[C@](O)(C[C@@H](O)C[C@@H](O)[C@H](O)CC[C@@H](O)C[C@@H](O)CC(=O)O[C@H]1C)C[C@H](O)[C@H]2C(=O)O [AMPHOTERICIN B]	10.4 µM	2 µM	12.8 µM	–	–	Activity (Leishmania amazonensis [14]): 0.6%; Activity (Leishmania amazonensis [15]): 0.3%; Activity (Leishmania amazonensis [16]): 98.7%; Activity (Leishmania amazonensis [17]): 0.3%; Activity (Leishmania amazonensis [18]): 1.6%; Activity (Leishmania amazonensis [19]): 0.6%; Activity (Leishmania amazonensis [20]): 97.1%; Activity (Leishmania amazonensis [21]): 0.6%; Activity (Leishmania amazonensis [22]): 0.8%; Activity (Leishmania amazonensis [23]): 1.5%; Activity (Leishmania amazonensis [24]): 95.1%; Activity (Leishmania amazonensis [25]): 2.5%
Nc1ccc2cc3ccccc3cc2c1 [2-AMINOANTHRACENE]	–	–	–	–	–	Activity [26]: 231 revertants/plate; revertant count [27]: 963 revertants/plate
COc1cccc2c1C(=O)c1c(O)c3c(c(O)c1C2=O)C[C@@](O)(C(=O)CO)C[C@@H]3O[C@H]1C[C@H](N)[C@H](O)[C@H](C)O1 [DOXORUBICIN]	–	–	2.4 µM	–	–	–
COc1cc(-c2cn(-c3cc(OC)c(OC)c(OC)c3)nn2)cc(OC)c1OC	–	–	–	–	–	IC50 (Leishmania amazonensis [10]): > 200 µM

Second part, led by results:

IC50 (Leishmania amazonensis [2])	IC50 (Leishmania amazonensis [4])	SMILES	CC50 at 48 h [1]	selectivity ratio [3]	selectivity ratio [5]	other results
71.5 µM	19.3 µM	COc1cc(OC)cc(-c2cc(-c3cc(OC)c(OC)c(OC)c3Cl)no2)c1	28 µM	0.4	1.5	–
9 µM	10.9 µM	COc1ccc(-c2cc(-c3cc(OC)c(OC)c(OC)c3Cl)no2)cc1	9.6 µM	1	0.8	–
91.8 µM	11.4 µM	COc1ccc(-c2cc(-c3cc(OC)c(OC)c(OC)c3Cl)on2)cc1OC	47.2 µM	0.5	4.1	–
31.2 µM	7.3 µM	COc1cc(OC)cc(-c2cc(-c3cc(OC)c(OC)c(OC)c3Cl)on2)c1	82.6 µM	2.6	11.3	–
74.4 µM	21.8 µM	COc1cc(-c2cc(-c3cc(OC)c(OC)c(OC)c3Cl)no2)cc(OC)c1OC	7 µM	0.1	0.3	–
88 µM	31.7 µM	COc1ccc(-c2cc(-c3cc(OC)c(OC)c(OC)c3Cl)no2)cc1OC	26.7 µM	0.3	0.8	–
33.8 µM	12.7 µM	COc1cc(-c2cc(-c3cc(OC)c(OC)c(OC)c3Cl)on2)cc(OC)c1OC	2.7 µM	0.07	0.2	–
45.8 µM	12.5 µM	COc1ccc(-c2cc(-c3cc(OC)c(OC)c(OC)c3Cl)on2)cc1	60.7 µM	1.3	4.9	–
103 µM	10.3 µM	COc1cc(-c2cc(-c3ccc4c(c3)OCO4)no2)c(Cl)c(OC)c1OC	33.7 µM	0.3	3.3	Ratio IC50 (Leishmania amazonensis [28]): <=7

— ChEMBL document CHEMBL6177952, “Exploring chloro-isoxazole compounds inspired on tetrahydrofuran neolignans as promising antileishmanial agents” (Eur J Med Chem, 2025)
